US20250134861A1, “COMPOSITIONS COMPRISING 5-METHOXY-N,N-DIMETHYLTRYPTAMINE (5-MEO-DMT) FOR USE IN TREATING MENTAL DISORDERS” (GH RESEARCH IRELAND LIMITED, priority 2019, published 2025)

What was measured:
[1] = Clinical trial of inhaled 5-MeO-DMT in healthy volunteers: 5-MeO-DMT and bufotenine plasma levels; assay type: in vivo, human; details: all other samples (1 hour and 3 hours) after inhaled 5-MeO-DMT
Description: The trial consisted of two parts: Part A, where single doses of 5-MeO-DMT dosage amounts of 2 mg, 6 mg, 12 mg and 18 mg were administered; and Part B, where an initial 5-MeO-DMT dosage amount of 6 mg was administered, and then, unless the participant had already experienced a peak psychedelic experience based on the PPEQ or the supervising physician had decided that further dose increases were inappropriate based on observed side effects, further subsequent dosage amounts of 12 mg and 18 mg were administered with about 3 hours in between each administration. […] Pharmacokinetic analysis of 5-MeO-DMT and bufotenine plasma levels was performed at 1 hour and 3 hours after drug administration in Part A, and at 3 hours after drug administration in Part B.

[2] = target: 5-HT2A receptor (Homo sapiens, UniProt P28223); details: compared with 5-MeO-DMT; cited from earlier work
Sequence of 5-HT2A receptor (P28223 whole entry): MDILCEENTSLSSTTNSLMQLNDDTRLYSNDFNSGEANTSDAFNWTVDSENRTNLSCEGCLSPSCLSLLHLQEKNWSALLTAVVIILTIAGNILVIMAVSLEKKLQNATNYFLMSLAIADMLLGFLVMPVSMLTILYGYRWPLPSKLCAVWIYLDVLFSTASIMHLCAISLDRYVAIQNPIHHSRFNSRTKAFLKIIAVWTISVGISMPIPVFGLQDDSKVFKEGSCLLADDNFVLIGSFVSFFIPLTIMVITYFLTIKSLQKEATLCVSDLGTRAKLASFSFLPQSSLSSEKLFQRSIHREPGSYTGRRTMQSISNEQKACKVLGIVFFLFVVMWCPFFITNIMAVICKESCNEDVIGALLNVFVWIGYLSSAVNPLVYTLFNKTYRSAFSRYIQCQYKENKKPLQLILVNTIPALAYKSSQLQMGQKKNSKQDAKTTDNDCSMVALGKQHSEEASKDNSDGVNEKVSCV

[3] = test system: patients with personality trait disturbance or anxiety; details: LSD as an aid to psychotherapy; cited from earlier work
[4] = test system: patients suffering from terminal state of cancer; details: LSD treatment; cited from earlier work
[5] = test system: patients with anxiety associated with life-threatening diseases; details: 12 patients; two months follow-up; cited from earlier work
[6] = test system: patients with alcohol dependence; details: therapy with LSD; cited from earlier work
[7] = oral; cited from earlier work
[8] = test system: patients in a treatment program of alcoholism; details: LSD together with psychotherapy vs psychotherapy alone; cited from earlier work
[9] = test system: patients with treatment-resistant depression; details: in vivo; cited from earlier work

CN(C)CCc1c[nH]c2ccc(O)cc12 [bufotenine]
Bufotenine (5-MeO-DMT metabolite) plasma levels [1]: undetectable
Affinity for the 5-HT2A receptor [2]: much higher affinity than 5-MeO-DMT itself

CCN(CC)C(=O)[C@@H]1C=C2c3cccc4[nH]cc(c34)C[C@H]2N(C)C1 [LSD, lysergic acid diethylamide]
Patients with outcome of "much improved" or "improved" [3]: over 90%
Fraction of patients who improved in varying degrees [4]: about two-thirds
Anxiety measures [5]: significant effects
Patients changed (stop drinking or are much improved) [6]: 50%
Duration of acute psychedelic effects [7]: several hours
Rates of abstinence or improvement [8]: higher rates of abstinence or improvement

CN(C)CCc1c[nH]c2cccc(OP(=O)(O)O)c12 [psilocybin]
Frequently reported side effects [9]: anxiety, headache and nausea
